The values that follow come from article PMC3071021 (Bioorganic & medicinal chemistry letters, 2011).

For one experiment, the system named is Jurkat cells. The experiment is described as follows: Standard MTT assay, Jurkat cells. The experiment is classed as cell-based. As to conditions: listed as CD4.M3. Background: Formazan colour is commonly taken as a measure of viable cells.
Experiment [1] concerns T6-17 (HER2/neu expressing cells). The experiment is described as follows: Standard MTT assay, T6-17 cells. The experiment is classed as cell-based. The following applies: listed as CD4.M3.

As to “[Cys^3-Cys^12]-HAbuFCYIGEVEDQCY-OH (disulfide) [CD4, reference compound]”, the “% inhibition of cell growth” value (in the experiment with Jurkat cells; in experiment [1]) was “unaffected” in each case.
